Assay results as given in patent US8309593B2, “2-acylaminopropoanol-type glucosylceramide synthase inhibitors” (Genzyme Corporation, priority 2008, dated 2012).

These molecules were tested on GM3 (assay: GM3 Elisa assay). Details: 48 h, Table 1; B16-FO cells, 2 days with compound; read-out: IC50_uM_Mean.
Format: cell-based
Experimental: B16-FO cells from ATCC (American Tissue Culture Collection) were grown in DMEM media (ATCC) with 10% Fetal Bovine Serum (Hyclone) and Pen/Step/Glutamine (Biowhittaker). 4000 cells per well were plated on collagen coated plates (BD) and allowed to attach for 6 hours in an incubator (37 degrees, 5% CO2). After 6 hours the compounds and controls were added to the wells, the plates mixed and returned to the incubator for 2 days. Day of assay the cells were fixed for 20 minutes with 1% formaldehyde and then washed with Tris Buffered Saline (TBS) 3 times, 150 μl of TBS was left in the wells and 50 μl of goat serum (Invitrogen) was added, the plates mixed and incubated for 1 hour at room temperature. The plates were flicked and the cells incubated with the monoclonal Antibody to GM3 (NeuAc) (Cosmo) for 45 minutes as room temperature. The plates were then washed 3 times with TBS, leaving 150 μl of TBS in the wells and Peroxidase AffinPure F (ab′) 2 frag Gt Anti-mouse IgM, μ Chain Specific (Jackson Immuno Research) was added in 50 μl, the plates mixed and incubated for 45 minutes at room temperature. The plates were washed 3 times with TBS, flicked and blotted and 100 μl of Quantablu (Pierce) was added to the wells and incubated for 1 hour then read on a Fluorometer at Ex 325 and Em 420. The data was then analyzed using standard programs.

IC50 [µM]	Structure (SMILES)
≤ 0.1	O=C(CCCc1nc2ccccc2s1)N[C@H](CN1CCCC1)[C@H](O)c1ccc2c(c1)OCCO2 [Compound 101, 4-(benzo[d]thiazol-2-yl)-N-((1R,2R)-1-(2,3-dihydrobenzo[1,4]dioxin-6-yl)-1-hydroxy-3-(pyrrolidin-1-yl)propan-2-yl)butanamide]
0.1 to 1	CCC(=O)c1ccc(OCCC(=O)N[C@H](CN2CCCC2)[C@H](O)c2ccc3c(c2)OCCO3)cc1 [Compound 189, N-((1R,2R)-1-(2,3-dihydrobenzo[b][1,4]dioxin-6-yl)-1-hydroxy-3-(pyrrolidin-1-yl)propan-2-yl)-3-(4-propionylphenoxy)propanamide (2R,3R)-2,3-dihydroxysuccinate]
≤ 0.1	COc1cccc(CNC(=O)N[C@H](CN2CCCC2)[C@H](O)c2ccc3c(c2)OCCO3)c1 [Compound 80, 1-((1R,2R)-1-(2,3-dihydrobenzo[β][1,4]dioxin-6-yl)-1-hydroxy-3-(pyrrolidin-1-yl)propan-2-yl)-3-(3-methoxybenzyl)urea]

Structure (SMILES)	IC50 [µM]
COc1ccc(OCCC(=O)N[C@H](CN2CCCC2)[C@H](O)c2ccc3c(c2)OCCO3)cc1 [Compound 61, N-((1R,2R)-1-(2,3-dihydrobenzo[β][1,4]dioxin-6-yl)-1-hydroxy-3-(pyrrolidin-1-yl)propan-2-yl)-3-(4-methoxyphenoxy)propanamide]	≤ 0.1

Same assay, conditions: Table 3 (title: IC 50 Values); read-out: IC50_uM_Mean

Structure (SMILES)	IC50 [µM]
CC(=O)CCCCCC(=O)N[C@H](CN1CCCC1)[C@@H](O)c1ccc(OC(F)(F)F)cc1 [Compound 665]	3 to 10
COc1ccc(OCCC(=O)N[C@H](CN2CCCC2(C)C)[C@@H](O)c2ccc3c(c2)OCCO3)cc1 [Compound 551]	3 to 10
COc1ccc(OCCC(=O)N[C@@H](CN2CCCC2)[C@@H](O)c2ccc3c(c2)OCCO3)cc1 [Compound 675]	3 to 10
O=C(N[C@H](CN1CCCC1)[C@@H](O)c1ccc2c(c1)OCCO2)C1(C(F)(F)F)CCC1 [Compound 614]	3 to 10
CCCCCCCC(=O)N[C@H](CN1CCC[C@@H]1COC)[C@@H](O)c1ccc2c(c1)OCCO2 [Compound 540]	3 to 10
Cc1nccn1C[C@@H](NC(=O)CCCCCC(=O)c1ccc(F)cc1)[C@@H](O)c1ccc2c(c1)OCCO2 [Compound 569]	3 to 10

Further lines, results first:

IC50 [µM]	Structure (SMILES)
3 to 10	CCCCCCCC(=O)N[C@H](CN1[C@H](C)CC[C@@H]1C)[C@H](O)c1ccc2c(c1)OCCO2 [Compound 549]
3 to 10	O=C(Cc1ccc(OC(F)(F)F)cc1)N[C@H](CN1CCCC1)[C@H](O)c1ccc(Cl)s1 [Compound 492]
3 to 10	O=C(CC(F)(F)F)N[C@H](CN1CCCC1)[C@@H](O)c1ccc2c(c1)OCCO2 [Compound 624]
3 to 10	COc1cc([C@H](O)[C@@H](CN2CCCC2)NC(=O)CCCCCC(C)=O)cc(OC)c1OC [Compound 671]
≤ 0.1	COc1ccc(C(=O)CCCCCC(=O)N[C@H](CN2CCC[C@H]2C)C(O)c2ccc3c(c2)OCCO3)cc1 (stereo partly drawn) [Compound 529]
≤ 0.1	COc1ccc(C(=O)CCCCCC(=O)NC(CN2CC[C@@H](F)C2)[C@H](O)c2ccc3c(c2)OCCO3)cc1 (stereo partly drawn) [Compound 531]
0.1 to 1	O=C(CCCCCC1CCOCC1)N[C@H](CN1CCCC1)[C@@H](O)c1ccc2c(c1)OCCO2 [Compound 559]
≤ 0.1	O=C(CCCCCC(=O)c1ccc(F)cc1)N[C@H](CN1CC[C@@H](F)C1)[C@@H](O)c1ccc2c(c1)OCCO2 [Compound 565]
0.1 to 1	COc1ccc(C(=O)CCOCCC(=O)N[C@H](CN2CC[C@@H](O)C2)[C@H](O)c2ccc3c(c2)OCCO3)cc1 [Compound 518]
0.1 to 1	CCCCCCCC(=O)N[C@H](CN1CCCC1)[C@@H](O)c1ccc(OC(F)(F)F)cc1 [Compound 667]
0.1 to 1	COC[C@@H]1CCCN1C[C@@H](NC(=O)CCCCCC(=O)c1ccc(OC)cc1)C(O)c1ccc2c(c1)OCCO2 (stereo partly drawn) [Compound 533]
